The results in this text go back to patent US20180370912A1, “COMPOUNDS AND METHODS FOR TREATING DISEASES MEDIATED BY PROTEIN DISULFIDE ISOMERASE” (Beth Israel Deaconess Medical Center, Inc., priority 2017, published 2018).

Experiment [1] addresses T1, PDI (Homo sapiens, UniProt P07237).
T1 construct: FLAG; made in house; host or cells: Escherichia coli Origami B (DE3), pET-15b
Description: Di-eosin-GSSG disulfide reductase assay. The format is biochemical. The protocol:
The probe di-eosin glutathione disulfide, di-eosin-GSSG, was prepared as previously described in Raturi, A., Vacratsis, P. O., Seslija, D., Lee, L. & Mutus, B., Biochem J 391, 351-357 (2005). Reductase activity of purified thiol isomerases and PDI domains was monitored in a 96-well fluorescence plate format. PDI, AGHA-PDI, ERpS, ERp57, ERp72 and PDI domains were assayed at 50 nM in the presence or absence of the indicated small molecules, peptides or cathepsin G. The assay included 100 mM potassium phosphate (pH 7.4) containing 2 mM EDTA, 5 μM DTT and 150 nM of the di-eosin GSSG probe. The increase in fluorescence was determined for 20 minutes by excitation at 520 nm and emission at 550 nm in a Synergy Biotek 4. The reduction of 150 nM di-eosin-GSSG by 5 μM DTT in the presence or absence of mentioned small molecules, peptides or proteins served as a negative control.
Michaelis Menten analysis was assayed using PDI at 20 nM and small molecules, peptides or cathepsin G at concentrations causing maximal augmentation under similar buffer conditions as described above. 8-point response curves were generated using a range of different di-eosin-GSSG concentrations (50-5000 nM). Enzyme kinetics analysis was performed using Graphpad Prism 5.0.

Experiment [2] deals with T1, PDI. Description: ANS fluorescence. The format is binding. As to conditions: 100 μM inhibitor, 50 μM ANS, FIG. 4c. The protocol:
The binding of 1-Anilinonaphthalene-8-Sulfonic Acid (ANS) to full length PDI and the different domains of PDI was assessed by incubating 5 μM of protein in the presence or absence of 100 μM of the indicated inhibitors in 175 μL of TBS at 37° C. for 1 hour. Subsequently, 50 μM of ANS was added and the mixture was incubated in the dark at 25° C. for 20 minutes. Fluorescence spectrum (Ex: 370 nm, Em: 400-700 nm) was measured in a 384-well plate. The experiment was performed in triplicate.

Experiment [3] deals with T2, PDI domain fragments (a, a′, ab, abb′, b′xa′) (Homo sapiens, UniProt P07237).
T2 construct: a (residues 1-117), a′ (residues 342-462), ab (residues 1-218), abb′ (residues 1-331), or b′xa′ (residues 219-462); His; made in house; host or cells: Escherichia coli Origami B (DE3), pET-15b
T2 sequence (P07237 18-348): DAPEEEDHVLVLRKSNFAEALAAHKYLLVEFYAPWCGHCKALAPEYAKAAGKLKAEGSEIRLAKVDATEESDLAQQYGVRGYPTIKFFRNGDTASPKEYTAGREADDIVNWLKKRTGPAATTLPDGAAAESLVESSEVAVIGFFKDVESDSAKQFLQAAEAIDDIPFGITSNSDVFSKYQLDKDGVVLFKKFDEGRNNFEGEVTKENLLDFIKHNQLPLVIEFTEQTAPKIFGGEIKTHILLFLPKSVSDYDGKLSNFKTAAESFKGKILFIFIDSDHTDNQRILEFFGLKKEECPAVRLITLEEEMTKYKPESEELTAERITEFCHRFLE
Description: Insulin reductase assay of isolated PDI domains. The format is biochemical. As to conditions: FIG. 4a. How it is done: (§1) The thiol isomerase-catalyzed reduction of insulin was assayed by measuring the increase in turbidity as detected at an optical density (OD) of 650 nm using a Spectramax M3 (Molecular Devices, Sunnyvale, Calif.). The validation assay consisted of 175 nM of PDI in a solution containing 100 mM potassium phosphate (pH 7.4) containing 0.2 mM bovine insulin, 2 mM EDTA, and 0.3 mM DTT (all purchased from Sigma Aldrich, St. Louis, Mo.), inhibitors were used at the concentrations indicated. The reaction was performed at 25° C. for one hour and thirty minutes. For assays of thiol isomerase selectivity, 11 nM PDI, ERp57 or Thioredoxin, or 33 nM ERpS were assayed in similar buffer conditions as described above and inhibitors were used at the indicated concentration. The reaction was performed at 37° C. for forty-five minutes. For assays of isolated domains studies, 400 nM protein was used, except for a, a′ and ab, in which 800 nM protein was used. The assay was performed in similar buffer conditions as described above. Bepristat 2a and N-(2,4-Dimethoxyphenyl)-N-(1-oxo-2-propyn-1-yl)-2-(2-thienyl)glycyl-glycine ethyl ester (PACMA-31) were used at a final concentration of 15 μM in these studies.

Experiment [4] addresses T3, PDI domain fragments (a, a′, ab, abb′, b′xa′) (Homo sapiens, UniProt P07237).
T3 construct: a (residues 1-117), a′ (residues 342-462), ab (residues 1-218), abb′ (residues 1-331), or b′xa′ (residues 219-462); His; made in house; host or cells: Escherichia coli Origami B (DE3), pET-15b
T3 sequence (P07237 18-235): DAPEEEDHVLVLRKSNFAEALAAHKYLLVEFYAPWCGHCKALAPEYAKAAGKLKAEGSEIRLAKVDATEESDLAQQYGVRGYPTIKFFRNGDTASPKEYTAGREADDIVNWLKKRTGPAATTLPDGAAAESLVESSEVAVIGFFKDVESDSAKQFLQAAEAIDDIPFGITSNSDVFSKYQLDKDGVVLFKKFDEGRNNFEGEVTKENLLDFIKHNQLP
Description: Insulin reductase assay of isolated PDI domains. As to conditions: FIG. 4a. The format is biochemical. How it is done:
as §1
The source holds these as a separate data set.

For experiment [5], the target named is T4, PDI domain fragments (a, a′, ab, abb′, b′xa′) (Homo sapiens, UniProt P07237).
T4 construct: a (residues 1-117), a′ (residues 342-462), ab (residues 1-218), abb′ (residues 1-331), or b′xa′ (residues 219-462); His; made in house; host or cells: Escherichia coli Origami B (DE3), pET-15b
Description: Insulin reductase assay of isolated PDI domains. The format is biochemical. As to conditions: FIG. 4a. How it is done: as §1
The source holds these as a separate data set.

In a further experiment the test system is Washed human platelets. Description: Platelet aggregation, light transmission aggregometry. The format is cell-based. As to conditions: for inhibition of SFLLRN-induced platelet aggregation: 30 μM, 3 μM SFLLRN, FIG. 2d; for reversibility of inhibition of platelet aggregation after washing: platelets incubated with antagonist, washed, then stimulated with SFLLRN. The protocol: Platelet aggregation was performed as previously described in Jasuja, R. et al., J Clin Invest 122, 2104-2113 (2012). Briefly, platelet rich plasma (PRP) was obtained from healthy volunteers. Platelets were isolated by centrifugation at 2,000 g and resuspended in Hepes-Tyrode buffer (134 mM […], 2.9 mM KCl, 12 mM sodium bicarbonate, 20 mM HEPES, 1 mM magnesium chloride, 5 mM glucose [pH 7.3]). Washed human platelets (2.5×10^8 platelets/mL) were incubated with the indicated concentrations of bepristats and PACMA-31 at 37° C. for 20 minutes and then exposed to 3 μM PAR-1 activating peptide SFLLRN. Aggregation was measured using a Chrono-Log 680 Aggregation System.

For experiment [6], the target named is T1, PDI. Description: Insulin reductase (turbidimetric) assay. The format is biochemical. As to conditions: for selectivity for PDI among thiol isomerases: versus ERp5, ERp57, thioredoxin, concentrations 10-fold higher than IC50. How it is done: as §1
Reversibility studies were performed by incubating 20 μM PDI with 6 μM of bepristat 2a or 300 μM of PACMA-31. After 30 minute equilibration; the PDI-inhibitor mixture was diluted 100 fold into the above mentioned assay buffer. The reductase activity of these mixtures were compared to PDI in the presence or absence of 6 μM bepristat 2a or 0.06 μM bepristat 2a or 300 μM PACMA-31 or 3 μM PACMA-31.

T1 sequence (P07237 18-508): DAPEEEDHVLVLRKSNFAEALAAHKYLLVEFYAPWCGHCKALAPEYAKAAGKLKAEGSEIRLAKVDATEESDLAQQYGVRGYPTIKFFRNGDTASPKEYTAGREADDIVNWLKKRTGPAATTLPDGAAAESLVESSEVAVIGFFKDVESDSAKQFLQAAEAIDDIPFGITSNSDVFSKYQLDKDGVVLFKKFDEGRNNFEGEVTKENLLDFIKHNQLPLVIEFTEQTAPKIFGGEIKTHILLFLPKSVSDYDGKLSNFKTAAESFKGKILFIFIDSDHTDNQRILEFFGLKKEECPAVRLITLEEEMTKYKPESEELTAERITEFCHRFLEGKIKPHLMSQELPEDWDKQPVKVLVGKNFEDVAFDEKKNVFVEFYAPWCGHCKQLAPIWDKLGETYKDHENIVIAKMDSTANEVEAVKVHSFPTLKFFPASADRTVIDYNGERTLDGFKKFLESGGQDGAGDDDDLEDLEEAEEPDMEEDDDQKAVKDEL

With `C#CC(=O)N(c1ccc(OC)cc1OC)C(C(=O)NCC(=O)OCC)c1cccs1` (stereo not shown) [PACMA-31, N-(2,4-Dimethoxyphenyl)-N-(1-oxo-2-propyn-1-yl)-2-(2-thienyl)glycyl-glycine ethyl ester, reference compound], the “cleavage of di-eosin-GSSG probe by PDI (reductase activity at catalytic cysteines)” value at PDI [1] is reported as “blocked PDI-mediated cleavage of di-eosin-GSSG”. For the same molecule, the “increase in ANS fluorescence upon incubation with PDI” value at PDI [2] was “failed to block ANS fluorescence”. In addition, the “insulin reductase activity of abb′ domains” value in experiment [3] was “inhibited reductase activity of all PDI fragments”. The “insulin reductase activity of ab domain” value in experiment [4] is reported as “inhibited reductase activity of all PDI fragments”. Also, in experiment [5], the “insulin reductase activity of b′xa′ domains” value was “inhibited reductase activity of all PDI fragments”, the “insulin reductase activity of isolated a domain” value was “inhibited reductase activity of all PDI fragments” and the “insulin reductase activity of isolated a′ domain” value was “inhibited reductase activity of all PDI fragments”. In the experiment on Washed human platelets, the “inhibition of SFLLRN-induced platelet aggregation” value was “inhibited platelet aggregation” and the “reversibility of inhibition of platelet aggregation after washing” value is recorded as “irreversibly inhibited”. Further, on PDI [6], the “selectivity for PDI among thiol isomerases” value is reported as “not entirely selective for PDI among thiol isomerases”.
Take `CCOC(=O)c1c(CNCCN(CC)CC)n(-c2ccccc2)c2cc(Br)c(O)cc12` [bepristat 2a]: the “cleavage of di-eosin-GSSG probe by PDI (reductase activity at catalytic cysteines)” value on PDI [1] is “enhanced cleavage of the di-eosin-GSSG probe by PDI”. Besides, the apparent kcat on PDI [1] (Michaelis-Menten analysis, incubation with compound, 1135 min^−1 without bepristats) amounted to 33.25 s⁻¹. Also, the “fluorescence of di-eosin-GSSG in the absence of PDI” value at PDI [1] (no PDI) is given as “did not affect”. Besides, the “increase in ANS fluorescence upon incubation with PDI” value at PDI [2] is given as “interfered with the increase in ANS fluorescence”. Further, the “insulin reductase activity of abb′ domains” value in experiment [3] is listed as “blocked activity”. In addition, the “insulin reductase activity of ab domain” value in experiment [4] is “did not have activity”. In experiment [5], the “insulin reductase activity of b′xa′ domains” value is given as “blocked activity”, the “insulin reductase activity of isolated a domain” value was “did not have activity” and the “insulin reductase activity of isolated a′ domain” value is on record as “did not have activity”. In the experiment with Washed human platelets, the “inhibition of SFLLRN-induced platelet aggregation” value is on record as “inhibited platelet aggregation” and the “reversibility of inhibition of platelet aggregation after washing” value is given as “restored following washing”. The “reversibility of PDI inhibition in the insulin reductase assay” value at PDI [6] (100-fold dilution of 6 μM bepristat 2a or 300 μM PACMA-31, FIG. 9) is listed as “readily reversed by dilution to a subinhibitory concentration”. Also, the “inhibitory activity in the insulin turbidimetric assay compared with quercetin-3-rutinoside, PACMA-31 and bacitracin” value against PDI [6] (FIG. 1e) is recorded as “more potent inhibitory activity”. Besides, at PDI [6] (insulin reductase assay, FIG. 1b), the IC50 (as a rule, the concentration needed to halve the response being measured) is about 1.2 µM. In addition, the “selectivity for PDI among thiol isomerases” value at PDI [6] was “selective among vascular thiol isomerases”.
